Data published in paper PMC9017425, “Integrative Analysis of Pharmacokinetic and Metabolomic Profiles for Predicting Metabolic Phenotype and Drug Exposure Caused by Sotorasib in Rats” (Frontiers in Oncology, 2022).
Like-named read-outs stand apart in the source and are kept apart here.

Tests used:
[1] = Pharmacokinetic study of sotorasib in rats after oral administration (HPLC-MS/MS of plasma); type: in vivo; conditions: male, Sprague-Dawley, rat
Method: For the PK study, a chromatographic system of Shimadzu LC-20ADXR (Kyoto, Japan) coupled with a mass spectrometer (QTRAP 5500; SCIEX, Concord, Canada) was utilized for chromatographic separation and mass quantitation ([19]). The column temperature was set to 40°C on a reversed-phase C18 column (50 mm × 2.1 mm i.d., 3.5 μm) (XBrige; Waters, Milford, MA, USA), and the total run time was 3.0 min. Both mobile phases contained 0.1% formic acid. Gradient elution was adopted to comply with the compounds’ baseline separation (0–0.1 min, 90% water phase; 0.1–1.2 min, 10% water phase; 1.2–2.2 min, 0% water phase; and 2.2–3.0 min, 90% water phase). The flow rate was fixed at 0.4 ml/min with an injection volume of 2 μl. A time-efficient washing procedure composed of MeOH/water/ACN/IPA (1:1:1:1, v/v/v/v) was applied during the entire analyses. Multiple reaction monitoring (MRM) was utilized with the following parameters: ion spray voltage, 5,500 V; temperature, 550°C; curtain gas, 20.0 psi; ion source, gas 1 at 55.0 psi; and turbo ion source, gas 2 at 55.0 psi. A proton adduct [M+H]^+ ion and double MRM transitions were used, which were set at m/z 561.4→317.1 (qualifier) and m/z 561.4→134.1 (quantifier) for sotorasib and at 237.0→194.1 for the IS.
During the PK study, all unknown plasma samples were mixed for 1 min and 20 μl aliquot of plasma was pipetted into an Eppendorf centrifuge tube. Protein precipitation was adopted for the preparation of the sample. After the addition of 10 μl IS working solution (10 ng/ml) and 80 μl MeOH, proteins were extracted by vortex mixing for approximately 30 s. The supernatant was centrifuged at 13,500 rpm for 10 min at 4°C. The extraction solutions were then pipetted into autosampler vials.
Six Sprague–Dawley rats (180–220 g, 8-week-old males; animal license: SCXK-2019-0008) were purchased from Beijing Vital River Laboratory Animal Technologies Co., Ltd. (Beijing, China). All rats were fed in a specific pathogen-free (SPF) conditioned room to allow acclimatization for 1 week. Animal experiments were implemented in line with the Guidelines for the Care and Use of Laboratory Animals, and animal ethics was approved by Beijing Chao-Yang Hospital, Capital Medical University. Rats were orally administered sotorasib dissolved with 1% Tween-80 and 2% hydroxypropyl methylcellulose (HPMC) in water at a dose of 10 mg/kg. Biological samples (approximately 500 μl) were collected from ophthalmic veins into heparin-anticoagulated collection tubes before administration and at 15 min, 30 min, and 1, 1.5, 2, 2.5, 3, 4, and 8 h after administration. Plasma samples were acquired by direct centrifugation at 3,500 rpm for 10 min at 4°C.
Raw data files were processed and checked using Analyst 1.6.3 and MultiQuant 3.0.1 (SCIEX, Concord, Canada). The concentrations of the analytes were calculated according to the calibration curve. Pharmacokinetic parameters, such as C max and the area under the curve (AUC), were calculated using Phoenix WinNonLin software (Pharsight 8.3, Mountain View, CA, USA). Pearson’s correlation was employed to investigate the correlation between the metabolomic data and PK parameters using IBM SPSS 26.0 (Armonk, NY, USA). SIMCA-P software (v14.1; Umetric, Umeå, Sweden) was employed to build mathematical models, including unsupervised principal component analysis (PCA), supervised orthogonal projection to latent structures discriminant analysis (OPLS-DA), and partial least squares (PLS). Compounds with values of variable importance in the projections (VIP) >1 and statistical significance of p < 0.05 were selected for further identification and metabolic pathway analysis. One hundred or 200 random permutation tests were employed to examine overfitting and random effects, which can assess the predictive ability of the model. Meanwhile, significant variables with p < 0.05 and fold change (FC) >2 or <0.5 were considered potential biomarkers. […]

[2] = Working solution stability of sotorasib; type: physicochemical; conditions: −80°C for 10 days, n = 6
Method: Stock solutions of sotorasib and IS were equipped using ACN at a concentration of 1.0 mg/ml and further diluted for the calibration standards and quality control (QC) samples at a final concentration of 500 µg/ml separately. The working IS solution was prepared in MeOH at a concentration of 10 ng/ml. The working calibration solutions of sotorasib were completed in dilution (MeOH/water = 1:1, v/v) to obtain concentrations of 5, 10, 20, 50, 100, 100, 200, 500, 1,000, 2,000, and 5,000 ng/ml. Similarly, the QC working solutions of analytes were prepared to obtain final concentrations of 10, 200, and 4,000 ng/ml. All solutions were stored in a −80°C freezer pending analysis. For the PK study, calibrations were made in blank rat plasma to achieve a nominal concentration range of 0.5–500 ng/ml. QC plasma samples were prepared in blank rat plasma at nominal concentrations of 1, 20, and 400 ng/ml. Stability was investigated at LQC and HQC concentrations in six replicates. The stability conditions incorporated the short-term (at ambient temperature for 24 h), freeze–thaw (−80°C to ambient temperature, three sequential cycles), post-preparation (autosampler, 24 h), and long-term (−80°C for 3 months) status. If the %Bias is within ±15%, the stability is considered acceptable.

[3] = Stability of sotorasib in rat plasma QC samples under different storage conditions; type: in vitro ADME; conditions: for Post-preparation stability, measured concentration Mean ± SD / Room temperature stability, measured concentration Mean ± SD / Freeze–thaw stability, measured concentration Mean ± SD / Long-term stability, measured concentration Mean ± SD: n = 6; for Room temperature stability, measured concentration Mean ± SD: rat plasma, ambient temperature; for Freeze–thaw stability, measured concentration Mean ± SD: three cycles −80°C to ambient temperature; for Long-term stability, measured concentration Mean ± SD: −80°C for 3 months
Text: Stability was investigated at LQC and HQC concentrations in six replicates. […] If the %Bias is within ±15%, the stability is considered acceptable.

[4] = design: method as in PMID 33283304; conditions: oral administration, 50 mg/kg; cited from earlier work
[5] = design: method as in PMID 33957355; conditions: mice, single oral 20 mg/kg; cited from earlier work
[6] = rats, 10 mg/kg, n = 6, mean ± SD

C=CC(=O)N1CCN(c2nc(=O)n(-c3c(C)ccnc3C(C)C)c3nc(-c4c(O)cccc4F)c(F)cc23)[C@@H](C)C1 [Sotorasib]
concentration at 15 min ([1]; 10-mg/kg dose, 15 min after administration, single sample, read-out: plasma concentration of an unknown sample): 298 ng/mL | AUC(0-inf) [1, 6]: 463 ± 167 ng·h/mL | AUC(0-t) [1, 6]: 457 ± 165 ng·h/mL | Cmax [1, 6]: 227 ± 98.8 ng/mL | half-life [1, 6]: 74.4 ± 13.2 min | CL/F ([1]; rats, 10 mg/kg, n = 6, mean ± SD, read-out: CL_F (apparent clearance) (converted)): 400 mL/min/kg | MRT ([1]; rats, 10 mg/kg, n = 6, mean ± SD, read-out: MRT (mean residence time)): 113 ± 10.8 min | Vd/F ([1]; rats, 10 mg/kg, n = 6, mean ± SD, read-out: Vz_F (apparent volume of distribution)): 43.3 ± 17.9 L/kg | Tmax ([1]; rats, 10 mg/kg, n = 6, median (range)): 30 min | Working solution stability, measured concentration Mean ± SD ([2]; nominal 1 ng/ml): 1.034 ± 0.08 ng/mL | Working solution stability, measured concentration Mean ± SD ([2]; nominal 400 ng/ml): 409.37 ± 37.98 ng/mL | stability under several storage conditions in plasma or in solution ([3]; ambient temperature 6 h, three freeze–thaw cycles, autosampler 24 h, working solution −80°C 10 days, −80°C 3 months): stable | Post-preparation stability, measured concentration Mean ± SD ([3]; nominal 1 ng/ml, autosampler 24 h): 1.07 ± 0.06 ng/mL | Room temperature stability, measured concentration Mean ± SD ([3]; nominal 1 ng/ml): 1.03 ± 0.10 ng/mL | Freeze–thaw stability, measured concentration Mean ± SD ([3]; nominal 1 ng/ml): 1.06 ± 0.07 ng/mL | Long-term stability, measured concentration Mean ± SD ([3]; nominal 1 ng/ml): 1.01 ± 0.07 ng/mL | Post-preparation stability, measured concentration Mean ± SD ([3]; nominal 400 ng/ml, autosampler 24 h): 441.20 ± 10.76 ng/mL | Room temperature stability, measured concentration Mean ± SD ([3]; nominal 400 ng/ml): 434.00 ± 8.07 ng/mL | Freeze–thaw stability, measured concentration Mean ± SD ([3]; nominal 400 ng/ml): 448.60 ± 6.19 ng/mL | Long-term stability, measured concentration Mean ± SD ([3]; nominal 400 ng/ml): 399.67 ± 20.10 ng/mL | AUC0–∞ [4]: 170 ng·h/mL | C max [4]: 123 ng/mL | T max [4]: 15 min | t 1/2 [4]: 114 min | AUC0–4 [5]: 3,766 ± 896 ng·h/ml | C max [5]: 4,231 ± 1,208 ng/ml | T max [5]: 12.6 ± 3.6 min | t 1/2 [5]: 36 ± 3.6 min | time in which C max was achieved [5]: < 15 min
